Test results: patent US20250270213A1, “PI3Ka INHIBITORS” (Synnovation Therapeutics, Inc., priority 2022, published 2025)

Test system: T47D (PIK3CA H1047R) cells
Assay: pS473 AKT assay with 2.5% FBS, T47D cells
Type: cell-based
Details: Homo sapiens, pSer473 AKT, DMEM with 2.5% FBS, 2 h treatment, read-out: T47D_IC50
In short: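 T47D (PIK3CA H1047R) cells were switched to DMEM with 2.5% FBS and exposed to compounds for 2 h. After paraformaldehyde fixation, pSer473 AKT was detected by in-cell ELISA (rabbit primary, HRP anti-rabbit secondary, chemiluminescence); IC50 values were fitted from the concentration series.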

IC50	SMILES
< 1000 nM	Cc1cc(C(C)Nc2ccc(Cl)nc2-c2cnn(C)c2)c2c(c1)c(=O)n(C)c1nn(C3CCN(CC(F)F)CC3)cc21 (stereo not drawn) [Example 212, 9-(1-((6-Chloro-2-(1-methyl-1H-pyrazol-4-yl)pyridin-3-yl)amino)ethyl)-2-(1-(2,2-difluoroethyl)piperidin-4-yl)-4,7-dimethyl-2,4-dihydro-5H-pyrazolo[3,4-c]isoquinolin-5-one]
< 1000 nM	[2H]C([2H])([2H])n1c(=O)c2cc(C)cc(C(C)Nc3ccc(Cl)nc3-c3noc(=O)[nH]3)c2c2cnn([C@H]3CCOC3)c21 (stereo partly drawn) [Example 213, 3-[6-Chloro-3-[1-[7-methyl-5-oxo-3-[(3S)-tetrahydrofuran-3-yl]-4-(trideuteriomethyl)pyrazolo[3,4-c]isoquinolin-9-yl]ethylamino]-2-pyridyl]-4H-1,2,4-oxadiazol-5-one]
< 1000 nM	[2H]C([2H])([2H])n1c(=O)c2cc(C)cc(C(C)Nc3ccc(Cl)nc3-c3cnn(C)c3)c2c2cnn([C@H]3CCOC3)c21 (stereo partly drawn) [Example 214, 9-(1-((6-chloro-2-(1-methyl-1H-pyrazol-4-yl)pyridin-3-yl)amino)ethyl)-7-methyl-4-(methyl-d3)-3-((S)-tetrahydrofuran-3-yl)-3,4-dihydro-5H-pyrazolo[3,4-c]isoquinolin-5-one]
< 1000 nM	CCn1c(=O)c2cc(C)cc(C(C)Nc3ccc(Cl)nc3-c3noc(=O)[nH]3)c2c2cnn([C@H]3CCOC3)c21 (stereo partly drawn) [Example 215, 3-(6-chloro-3-((1-(4-ethyl-7-methyl-5-oxo-3-((S)-tetrahydrofuran-3-yl)-4,5-dihydro-3H-pyrazolo[3,4-c]isoquinolin-9-yl)ethyl)amino)pyridin-2-yl)-1,2,4-oxadiazol-5(4H)-one]
< 1000 nM	CCn1c(=O)c2cc(C)cc(C(C)Nc3ccc(Cl)nc3-c3ncn(C)n3)c2c2cnn([C@H]3CCOC3)c21 (stereo partly drawn) [Example 216, 9-(1-((6-chloro-2-(1-methyl-1H-1,2,4-triazol-3-yl)pyridin-3-yl)amino)ethyl)-4-ethyl-7-methyl-3-((S)-tetrahydrofuran-3-yl)-3,4-dihydro-5H-pyrazolo[3,4-c]isoquinolin-5-one]
< 1000 nM	CCn1c(=O)c2cc(C)cc(C(C)Nc3ccc(Cl)nc3-c3cnn(C4CCN(C)CC4)c3)c2c2cnn([C@H]3CCOC3)c21 (stereo partly drawn) [Example 217, 9-(1-((6-chloro-2-(1-(1-methylpiperidin-4-yl)-1H-pyrazol-4-yl)pyridin-3-yl)amino)ethyl)-4-ethyl-7-methyl-3-((S)-tetrahydrofuran-3-yl)-3,4-dihydro-5H-pyrazolo[3,4-c]isoquinolin-5-one]
< 1000 nM	CCn1c(=O)c2cc(C)cc(C(C)Nc3ccc(Cl)nc3-c3ccnc(C)c3)c2c2cnn([C@H]3CCOC3)c21 (stereo partly drawn) [Example 218, 9-(1-((6-chloro-2′-methyl-[2,4′-bipyridin]-3-yl)amino)ethyl)-4-ethyl-7-methyl-3-((S)-tetrahydrofuran-3-yl)-3,4-dihydro-5H-pyrazolo[3,4-c]isoquinolin-5-one]
< 1000 nM	CCn1c(=O)c2cc(C)cc(C(C)Nc3ccc(Cl)nc3-c3ccc(=O)n(C)c3)c2c2cnn([C@H]3CCOC3)c21 (stereo partly drawn) [Example 219, 9-(1-((6-chloro-1′-methyl-6′-oxo-1′,6′-dihydro-[2,3′-bipyridin]-3-yl)amino)ethyl)-4-ethyl-7-methyl-3-((S)-tetrahydrofuran-3-yl)-3,4-dihydro-5H-pyrazolo[3,4-c]isoquinolin-5-one]

The next lines start with the molecule.

SMILES	IC50
Cc1cc(C(C)Nc2ccc(Cl)nc2-c2cnn(C)c2)c2c(c1)c(=O)n(C)c1c2cnn1C1CCN(C(=O)CN(C)C)CC1 (stereo not drawn) [Example 196, 9-(1-((6-chloro-2-(1-methyl-1H-pyrazol-4-yl)pyridin-3-yl)amino)ethyl)-3-(1-(dimethylglycyl)piperidin-4-yl)-4,7-dimethyl-3,4-dihydro-5H-pyrazolo[3,4-c]isoquinolin-5-one]	< 1000 nM
Cc1cc(C(C)Nc2ccc(Cl)nc2-c2ncn(C)n2)c2c(c1)c(=O)n(C)c1c2cnn1C1CCN(C(=O)[C@@H]2CCCN2C)CC1 (stereo partly drawn) [Example 197, 9-(1-((6-chloro-2-(1-methyl-1H-1,2,4-triazol-3-yl)pyridin-3-yl)amino)ethyl)-4,7-dimethyl-3-(1-(methyl-L-prolyl)piperidin-4-yl)-3,4-dihydro-5H-pyrazolo[3,4-c]isoquinolin-5-one]	< 1000 nM
CC(Nc1ccc(Cl)nc1-c1cnn(C)c1)c1cc(C#N)cc2c(=O)n(C)c3c(cnn3C3CCN(C)CC3)c12 (stereo not drawn) [Example 198, 9-(1-((6-Chloro-2-(1-methyl-1H-pyrazol-4-yl)pyridin-3-yl)amino)ethyl)-4-methyl-3-(1-methylpiperidin-4-yl)-5-oxo-4,5-dihydro-3H-pyrazolo[3,4-c]isoquinoline-7-carbonitrile]	< 1000 nM
CCn1c(=O)c2cc(C)cc(C(C)Nc3ccc(Cl)nc3-c3ncn(C)n3)c2c2cn(C3CCOCC3)nc21 (stereo not drawn) [Example 199, 9-(1-((6-Chloro-2-(1-methyl-1H-1,2,4-triazol-3-yl)pyridin-3-yl)amino)ethyl)-4-ethyl-7-methyl-2-(tetrahydro-2H-pyran-4-yl)-2,4-dihydro-5H-pyrazolo[3,4-c]isoquinolin-5-one]	< 1000 nM
Cc1cc(C(C)Nc2ccc(Cl)nc2-c2noc(=O)[nH]2)c2c(c1)c(=O)n(C)c1nn(C3CCOCC3)cc21 (stereo not drawn) [Example 200, 3-(6-chloro-3-((1-(4,7-dimethyl-5-oxo-2-(tetrahydro-2H-pyran-4-yl)-4,5-dihydro-2H-pyrazolo[3,4-c]isoquinolin-9-yl)ethyl)amino)pyridin-2-yl)-1,2,4-oxadiazol-5(4H)-one]	< 1000 nM
CCn1c(=O)c2cc(C)cc(C(C)Nc3ccc(Cl)nc3-c3ncn(C)n3)c2c2cn(C3CCN(C)CC3)nc21 (stereo not drawn) [Example 201, 9-(1-((6-Chloro-2-(1-methyl-1H-1,2,4-triazol-3-yl)pyridin-3-yl)amino)ethyl)-4-ethyl-7-methyl-2-(1-methylpiperidin-4-yl)-2,4-dihydro-5H-pyrazolo[3,4-c]isoquinolin-5-one]	< 1000 nM
CCn1c(=O)c2cc(C)cc(C(C)Nc3ccc(Cl)nc3-c3ncn(C)n3)c2c2cn(C3CCN(C(C)=O)CC3)nc21 (stereo not drawn) [Example 202, 2-(1-Acetylpiperidin-4-yl)-9-(1-((6-chloro-2-(1-methyl-1H-1,2,4-triazol-3-yl)pyridin-3-yl)amino)ethyl)-4-ethyl-7-methyl-2,4-dihydro-5H-pyrazolo[3,4-c]isoquinolin-5-one]	< 1000 nM
CCn1c(=O)c2cc(C)cc(C(C)Nc3ccc(Cl)nc3-c3ncn(C)n3)c2c2cn(C3CCN(CCO)CC3)nc21 (stereo not drawn) [Example 203, 9-(1-((6-Chloro-2-(1-methyl-1H-1,2,4-triazol-3-yl)pyridin-3-yl)amino)ethyl)-4-ethyl-2-(1-(2-hydroxyethyl)piperidin-4-yl)-7-methyl-2,4-dihydro-5H-pyrazolo[3,4-c]isoquinolin-5-one]	< 1000 nM
CCn1c(=O)c2cc(C)cc(C(C)Nc3ccc(Cl)nc3-c3ncn(C)n3)c2c2cn(C3CCN(CCC#N)CC3)nc21 (stereo not drawn) [Example 204, 3-(4-(9-(1-((6-Chloro-2-(1-methyl-1H-1,2,4-triazol-3-yl)pyridin-3-yl)amino)ethyl)-4-ethyl-7-methyl-5-oxo-4,5-dihydro-2H-pyrazolo[3,4-c]isoquinolin-2-yl)piperidin-1-yl)propanenitrile]	< 1000 nM
CCn1c(=O)c2cc(C)cc(C(C)Nc3ccc(Cl)nc3-c3ncn(C)n3)c2c2cn(C3CN(C)C3)nc21 (stereo not drawn) [Example 205, 9-(1-((6-Chloro-2-(1-methyl-1H-1,2,4-triazol-3-yl)pyridin-3-yl)amino)ethyl)-4-ethyl-7-methyl-2-(1-methylazetidin-3-yl)-2,4-dihydro-5H-pyrazolo[3,4-c]isoquinolin-5-one]	< 1000 nM
Cc1cc(C(C)Nc2ccc(Cl)nc2-c2cnn(C)c2)c2c(c1)c(=O)n(C)c1nn(C3CCN(C)CC3)cc21 (stereo not drawn) [Example 206, 9-(1-((6-Chloro-2-(1-methyl-1H-pyrazol-4-yl)pyridin-3-yl)amino)ethyl)-4,7-dimethyl-2-(1-methylpiperidin-4-yl)-2,4-dihydro-5H-pyrazolo[3,4-c]isoquinolin-5-one]	< 1000 nM
Cc1cc(C(C)Nc2ccc(Cl)nc2-c2cnn(C)c2)c2c(c1)c(=O)n(C)c1nn(C3CCN(C(C)C)CC3)cc21 (stereo not drawn) [Example 207, 9-(1-((6-chloro-2-(1-methyl-1H-pyrazol-4-yl)pyridin-3-yl)amino)ethyl)-2-(1-isopropylpiperidin-4-yl)-4,7-dimethyl-2,4-dihydro-5H-pyrazolo[3,4-c]isoquinolin-5-one]	< 1000 nM
Cc1cc(C(C)Nc2ccc(Cl)nc2-c2ncn(C)n2)c2c(c1)c(=O)n(C)c1nn(C3CCN(C)CC3)cc21 (stereo not drawn) [Example 208, 9-(1-((6-chloro-2-(1-methyl-1H-1,2,4-triazol-3-yl)pyridin-3-yl)amino)ethyl)-4,7-dimethyl-2-(1-methylpiperidin-4-yl)-2,4-dihydro-5H-pyrazolo[3,4-c]isoquinolin-5-one]	< 1000 nM
CC(=O)N1CCC(n2cc3c4c(C(C)Nc5ccc(Cl)nc5-c5cnn(C)c5)cc(C)cc4c(=O)n(C)c3n2)CC1 (stereo not drawn) [Example 209, 2-(1-Acetylpiperidin-4-yl)-9-(1-((6-chloro-2-(1-methyl-1H-pyrazol-4-yl)pyridin-3-yl)amino)ethyl)-4,7-dimethyl-2,4-dihydro-5H-pyrazolo[3,4-c]isoquinolin-5-one]	< 1000 nM
CCOC(=O)N1CCC(n2cc3c4c(C(C)Nc5ccc(Cl)nc5-c5cnn(C)c5)cc(C)cc4c(=O)n(C)c3n2)CC1 (stereo not drawn) [Example 210, ethyl 4-(9-(1-((6-chloro-2-(1-methyl-1H-pyrazol-4-yl)pyridin-3-yl)amino)ethyl)-4,7-dimethyl-5-oxo-4,5-dihydro-2H-pyrazolo[3,4-c]isoquinolin-2-yl)piperidine-1-carboxylate]	< 1000 nM
Cc1cc(C(C)Nc2ccc(Cl)nc2-c2cnn(C)c2)c2c(c1)c(=O)n(C)c1nn(C3CCN(C(=O)N(C)C)CC3)cc21 (stereo not drawn) [Example 211, 4-(9-(1-((6-chloro-2-(1-methyl-1H-pyrazol-4-yl)pyridin-3-yl)amino)ethyl)-4,7-dimethyl-5-oxo-4,5-dihydro-2H-pyrazolo[3,4-c]isoquinolin-2-yl)-N,N-dimethylpiperidine-1-carboxamide]	< 1000 nM
